Seven compounds from patent US11739090B2, “Substituted pyrazlo[3,4-c]pyridines as selective BTK kinase inhibitors” (JUMBO DRUG BANK CO., LTD., priority 2019, dated 2023) can be followed below.

By IC50 is commonly meant the point on the concentration scale where inhibition reaches its midpoint. A low value points to greater potency.

Holding throughout (assay type): biochemical
One assay deals with EGFR (Homo sapiens (Human), UniProt P00533). Put plainly: EGFR kinase test (33P-ATP filter binding). To be noted: for The ratio of the activities of EGFR and BTK: EGFR IC50 / BTK IC50 (first figure of the cell); for IC50: final ATP 2 μM, 120 minutes at room temperature. As for the experimental part:
(§1) Experimental Example 2: EGFR, ITK and TEC Kinase Test
(§2) buffer conditions: 20 mM HEPES (pH 7.5), 10 mM MgCl2, 1 mM EGTA, 0.02% Brij35, 0.02 mg/mL BSA, 0.1 mm Na3VO4, 2 mm DTT, 1% DMSO.
(§3) 2.1. Preparing an indicator substrate in a freshly prepared reaction buffer
(§4) 2.2. Delivering the desired cofactor to the above substrate solution
(§5) 2.3. Delivering the indicated kinase to the substrate solution and gently mixing same
(§6) 2.4. Delivering the compounds in DMSO to the kinase reaction mixture using acoustic technology (Echo550)
(§7) 2.5. Initiating the reaction (final concentration of ATP: 2 μM, 5 μM and 5 μM respectively) by delivering ^33P-ATP (final specific activity: 0.01 μci/μL) to the reaction mixture
(§8) 2.6. Incubating the kinase reaction at room temperature for 120 minutes
(§9) 2.7. Recording the reaction on P81 ion exchange paper (Whatman #3698-915)
(§10) 2.8. Washing the filter widely with 0.75% phosphoric acid
(§11) 2.9. Measuring the radioactive phosphorylated substrate remaining on the filter paper.
(§12) 3. Data analysis: the kinase activity data is expressed as the percentage of the remaining kinase activity in a test sample compared to a reaction with a carrier (dimethyl sulfoxide), and IC50 values and curve fitting are obtained using Prism4 software (GraphPad).

The next assay addresses BTK (Homo sapiens (Human), UniProt Q06187). Put plainly: BTK kinase test (33P-ATP filter binding). The note with it: final ATP 5 μM. Here is the method:
Experimental Example 1: BTK Kinase Test […]
as §2, §3, §4, §5, §6
2.5. Initiating the reaction (final concentration of ATP: 5 μM) by delivering ^33P-ATP (final specific activity: 0.01 μci/μL) to the reaction mixture
as §8, §9, §10
2.9. Measuring the radioactive phosphorylated substrate remaining on the filter paper. […]
the kinase activity data is expressed as the percentage of the remaining kinase activity in a test sample compared to a reaction with a carrier (dimethyl sulfoxide), and IC50 values and curve fitting are obtained using Prism4 software (GraphPad).

A further assay deals with TEC (Homo sapiens (Human), UniProt P42680). Put plainly: TEC kinase test (33P-ATP filter binding). The note with it: for The ratio of the activities of TEC and BTK: TEC IC50 / BTK IC50 (third figure of the cell); for IC50: final ATP 5 μM, 120 minutes at room temperature. As for the experimental part: as §1, §2, §3, §4, §5, §6, §7, §8, §9, §10, §11, §12
Sequence of TEC (P42680 whole entry): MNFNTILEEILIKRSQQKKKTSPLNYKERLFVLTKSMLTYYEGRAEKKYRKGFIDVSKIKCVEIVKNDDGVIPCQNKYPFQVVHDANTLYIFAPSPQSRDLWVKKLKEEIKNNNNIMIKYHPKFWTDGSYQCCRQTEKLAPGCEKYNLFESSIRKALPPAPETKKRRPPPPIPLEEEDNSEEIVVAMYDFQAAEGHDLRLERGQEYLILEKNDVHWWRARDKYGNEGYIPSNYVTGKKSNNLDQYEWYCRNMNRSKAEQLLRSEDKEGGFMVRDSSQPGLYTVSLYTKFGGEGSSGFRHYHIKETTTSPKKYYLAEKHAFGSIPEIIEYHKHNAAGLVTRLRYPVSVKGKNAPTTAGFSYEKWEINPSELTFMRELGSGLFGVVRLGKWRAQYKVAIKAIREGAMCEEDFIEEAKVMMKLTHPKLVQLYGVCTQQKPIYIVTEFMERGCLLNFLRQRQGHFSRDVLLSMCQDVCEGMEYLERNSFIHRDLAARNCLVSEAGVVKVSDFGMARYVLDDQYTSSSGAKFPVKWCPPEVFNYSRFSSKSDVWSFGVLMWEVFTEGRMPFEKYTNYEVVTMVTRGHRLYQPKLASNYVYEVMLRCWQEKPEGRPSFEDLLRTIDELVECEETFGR
For a further assay, the target named is ITK (Homo sapiens (Human), UniProt Q08881). Description: ITK kinase test (33P-ATP filter binding). The note with it: for The ratio of the activities of ITK and BTK: ITK IC50 / BTK IC50 (second figure of the cell); for IC50: final ATP 5 μM. Here is the method:
as §1, §2, §3, §4, §5, §6, §7, §8, §9, §10, §11, §12

The mark [1] stands for this setting: Table 1, 120 minutes at room temperature.

Sequence of ITK (Q08881 whole entry): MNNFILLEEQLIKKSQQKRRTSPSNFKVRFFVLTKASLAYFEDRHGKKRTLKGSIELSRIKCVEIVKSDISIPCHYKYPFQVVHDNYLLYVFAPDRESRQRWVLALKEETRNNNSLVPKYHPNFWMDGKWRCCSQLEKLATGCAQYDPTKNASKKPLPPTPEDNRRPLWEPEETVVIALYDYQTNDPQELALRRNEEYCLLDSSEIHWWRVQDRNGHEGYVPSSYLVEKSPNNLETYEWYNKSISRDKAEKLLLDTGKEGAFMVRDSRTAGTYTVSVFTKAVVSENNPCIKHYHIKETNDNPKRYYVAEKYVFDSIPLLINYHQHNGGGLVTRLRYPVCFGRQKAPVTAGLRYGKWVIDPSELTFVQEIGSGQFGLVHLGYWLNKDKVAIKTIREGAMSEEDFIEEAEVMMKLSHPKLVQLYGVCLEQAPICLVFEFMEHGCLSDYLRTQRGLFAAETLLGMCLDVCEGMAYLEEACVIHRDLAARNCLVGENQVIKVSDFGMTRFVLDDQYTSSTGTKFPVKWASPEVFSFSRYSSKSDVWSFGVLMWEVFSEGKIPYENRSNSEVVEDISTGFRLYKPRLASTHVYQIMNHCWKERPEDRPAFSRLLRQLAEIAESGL
Sequence of BTK (Q06187 whole entry): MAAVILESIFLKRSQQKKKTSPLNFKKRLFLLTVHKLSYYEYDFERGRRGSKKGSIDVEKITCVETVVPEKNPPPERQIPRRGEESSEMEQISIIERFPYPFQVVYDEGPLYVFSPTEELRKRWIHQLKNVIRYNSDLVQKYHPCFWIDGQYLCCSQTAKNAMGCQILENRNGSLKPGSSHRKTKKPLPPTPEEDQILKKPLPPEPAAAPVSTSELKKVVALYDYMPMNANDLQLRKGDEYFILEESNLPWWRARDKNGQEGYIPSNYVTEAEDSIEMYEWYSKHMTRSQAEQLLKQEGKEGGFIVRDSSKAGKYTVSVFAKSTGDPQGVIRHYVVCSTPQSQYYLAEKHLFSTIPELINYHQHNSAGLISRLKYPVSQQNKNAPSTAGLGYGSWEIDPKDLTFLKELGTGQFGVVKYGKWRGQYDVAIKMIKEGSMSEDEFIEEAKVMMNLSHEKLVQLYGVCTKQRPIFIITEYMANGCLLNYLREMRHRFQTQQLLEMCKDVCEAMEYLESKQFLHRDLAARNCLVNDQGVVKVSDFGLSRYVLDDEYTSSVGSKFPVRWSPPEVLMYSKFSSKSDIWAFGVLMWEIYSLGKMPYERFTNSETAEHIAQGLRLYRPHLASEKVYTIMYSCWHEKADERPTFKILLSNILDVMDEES
Sequence of EGFR (P00533 25-1210): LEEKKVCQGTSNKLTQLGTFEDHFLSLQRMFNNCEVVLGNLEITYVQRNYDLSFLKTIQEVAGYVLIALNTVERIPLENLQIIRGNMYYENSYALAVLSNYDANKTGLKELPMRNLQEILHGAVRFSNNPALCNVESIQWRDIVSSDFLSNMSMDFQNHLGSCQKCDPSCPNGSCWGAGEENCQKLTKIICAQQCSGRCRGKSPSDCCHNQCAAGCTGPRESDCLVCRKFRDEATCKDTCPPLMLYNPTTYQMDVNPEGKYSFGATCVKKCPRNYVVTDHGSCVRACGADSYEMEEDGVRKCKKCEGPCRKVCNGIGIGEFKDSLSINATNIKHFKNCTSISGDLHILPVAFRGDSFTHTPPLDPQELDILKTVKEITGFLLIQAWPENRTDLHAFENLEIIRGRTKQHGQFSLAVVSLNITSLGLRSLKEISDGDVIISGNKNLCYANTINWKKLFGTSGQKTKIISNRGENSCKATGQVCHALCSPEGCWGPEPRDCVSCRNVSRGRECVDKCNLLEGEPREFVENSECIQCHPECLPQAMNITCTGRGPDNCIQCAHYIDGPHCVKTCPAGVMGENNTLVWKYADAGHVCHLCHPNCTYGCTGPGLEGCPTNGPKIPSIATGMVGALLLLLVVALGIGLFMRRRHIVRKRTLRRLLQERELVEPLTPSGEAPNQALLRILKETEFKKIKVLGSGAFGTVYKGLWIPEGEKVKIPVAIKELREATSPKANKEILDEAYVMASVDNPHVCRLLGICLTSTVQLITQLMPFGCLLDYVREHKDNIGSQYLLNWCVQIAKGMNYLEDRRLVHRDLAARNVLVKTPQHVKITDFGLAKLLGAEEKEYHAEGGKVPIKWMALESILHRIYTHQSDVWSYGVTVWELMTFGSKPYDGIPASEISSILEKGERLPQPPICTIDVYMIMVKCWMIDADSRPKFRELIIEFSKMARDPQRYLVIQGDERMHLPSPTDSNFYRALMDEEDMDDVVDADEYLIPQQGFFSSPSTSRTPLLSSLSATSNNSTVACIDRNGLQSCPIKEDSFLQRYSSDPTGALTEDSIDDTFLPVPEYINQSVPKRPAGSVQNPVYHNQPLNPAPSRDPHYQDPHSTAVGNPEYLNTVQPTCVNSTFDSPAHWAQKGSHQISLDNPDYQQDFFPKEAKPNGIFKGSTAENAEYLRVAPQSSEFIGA

On to `C=CC(=O)N1CCC[C@@H](c2nn(-c3ccc(Oc4cc(F)cc(F)c4F)cc3)c3cncc(F)c23)C1` (single isomer, unassigned) [Compound 4A], for which the “The ratio of the activities of EGFR and BTK” value at EGFR worked out at 183 fold. Also, the IC50 on EGFR is 2020 nM; on BTK (setting [1]), 11 nM; on BTK (Table 2 comparison), 11 nM; at TEC, 169 nM; on ITK (unit μM), greater than 10 µM. Moreover, the “The ratio of the activities of TEC and BTK” value at TEC was “fold, 15-fold”. Also, the “The ratio of the activities of ITK and BTK” value at ITK is greater than 909 fold.
Regarding `C=CC(=O)N1CCC[C@H](c2nn(-c3ccc(Oc4cc(F)cc(F)c4F)cc3)c3cncc(F)c23)C1` (single isomer, unassigned) [Compound 4B], the half-maximal inhibitory concentration (IC50) on BTK (setting [1]) stood at 98.1 nM.
In turn, `C=CC(=O)N1CCC[C@@H](c2nn(-c3ccc(Oc4cccc(F)c4F)cc3)c3cncc(F)c23)C1` (single isomer, unassigned) [Compound 5A] returned an IC50 on BTK (setting [1]) of 31.8 nM.
In the case of `C=CC(=O)N1CCO[C@@H](c2nn(-c3ccc(Oc4c(F)cccc4F)cc3)c3cncc(F)c23)C1` [Compound 3A], the IC50 on BTK (setting [1]) was determined as 9.58 nM. Against the preceding compound, the IC50 is about 3.3-fold lower.
The same measure, in the same setting: in the case of `C=CC(=O)N1CCO[C@H](c2nn(-c3ccc(Oc4c(F)cccc4F)cc3)c3cncc(F)c23)C1` [Compound 3B] it was 2.7 nM.
As for `C=CC(=O)N1CCC[C@@H](c2nn(-c3ccc(Oc4cc(F)ccc4F)cc3)c3cncc(F)c23)C1` [Compound 6A], the “The ratio of the activities of EGFR and BTK” value at EGFR is 84 fold. Moreover, the IC50 on EGFR came to 812 nM; at BTK (setting [1]) it was 9.58 nM; at BTK (Table 2 comparison) it was 9.58 nM; on TEC, 43.2 nM; at ITK (120 minutes at room temperature), 7.32 µM. Further, on TEC, the “The ratio of the activities of TEC and BTK” value is reported as 4-fold. For the same compound, the “The ratio of the activities of ITK and BTK” value on ITK is listed as 764 fold.
Turning to `C=CC(=O)N1CCC[C@H](c2nn(-c3ccc(Oc4cc(F)ccc4F)cc3)c3cncc(F)c23)C1` [Compound 6B], on BTK (setting [1]), the half-inhibitory concentration (IC50) worked out at 140 nM. This lies in the sub-micromolar range.
